Where two headings read alike, the source gives them in different places. Blank lines part the entries; values can stand above or below the molecule they belong to.
Assays:
[1] = molecular target: T1, FXR-LBD protein (residues 244–472) (Homo sapiens, UniProt Q96RI1)
T1 sequence (Q96RI1 244-472 isoform Q96RI1-2): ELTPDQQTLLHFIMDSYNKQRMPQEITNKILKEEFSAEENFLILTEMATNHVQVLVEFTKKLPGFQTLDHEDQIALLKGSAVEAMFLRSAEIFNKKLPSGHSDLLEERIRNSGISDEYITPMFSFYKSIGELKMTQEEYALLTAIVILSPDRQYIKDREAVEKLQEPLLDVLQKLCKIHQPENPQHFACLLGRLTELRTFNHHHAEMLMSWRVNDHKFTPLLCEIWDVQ
Text: The thermal shift method is widely used to assess ligand binding. A thermal shift assay usually measures the melting temperature of a protein with or without a ligand by monitoring a fluorescent dye. In an aqueous solution of folded protein the dye signal is low due to quenching of the dye fluorescence in water, but with increasing temperature the protein unfolds and exposes its hydrophobic core regions. The fluorescent dye is then bound to the hydrophobic surfaces and fluorescence increases.
Thermal Shift assay was performed in clear 96-well plates (Invitrogen) using SYPRO Orange (Invitrogen Darmstadt, Germany) as dye. […] Temperature-dependent fluorescence increase reporting protein denaturation was measured in duplicates in an ICycler (Bio-Rad) from 20 to 90 °C in steps of 0.2 °C per minute at […] and 570 nm emission wavelength. Each experiment was independently repeated four times. The first derivative of the melting curves was calculated using the Graph Pad Prism 5 software.

[2] = molecular target: T2, fusion receptor of the FXR ligand binding domain and a Gal4 DNA binding domain (Homo sapiens, UniProt Q96RI1)
T2 sequence (Q96RI1 262-486 limits assumed): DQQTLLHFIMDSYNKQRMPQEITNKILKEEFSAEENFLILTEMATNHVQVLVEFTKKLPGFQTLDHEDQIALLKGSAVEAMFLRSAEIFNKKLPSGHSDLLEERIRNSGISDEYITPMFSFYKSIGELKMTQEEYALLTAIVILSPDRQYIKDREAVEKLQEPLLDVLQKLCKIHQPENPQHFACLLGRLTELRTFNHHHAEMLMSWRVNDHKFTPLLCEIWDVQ
Procedure: Luminescence was measured with an Infinite M200 luminometer (Tecan Deutschland GmbH). […] Fold activation was obtained by dividing the mean RLU of a test compound at a respective concentration by the mean RLU of untreated control.

FXR = molecular target: T3, FXR (Homo sapiens, UniProt Q96RI1); test: Full-length FXR reporter gene assay in HeLa cells (BSEP promotor, RXRα); type: cell-based
T3 construct: is based on the complete FXR receptor (CMV promoter); expressed in transfected cells; host or cells: HeLa
T3 sequence (Q96RI1 1-486): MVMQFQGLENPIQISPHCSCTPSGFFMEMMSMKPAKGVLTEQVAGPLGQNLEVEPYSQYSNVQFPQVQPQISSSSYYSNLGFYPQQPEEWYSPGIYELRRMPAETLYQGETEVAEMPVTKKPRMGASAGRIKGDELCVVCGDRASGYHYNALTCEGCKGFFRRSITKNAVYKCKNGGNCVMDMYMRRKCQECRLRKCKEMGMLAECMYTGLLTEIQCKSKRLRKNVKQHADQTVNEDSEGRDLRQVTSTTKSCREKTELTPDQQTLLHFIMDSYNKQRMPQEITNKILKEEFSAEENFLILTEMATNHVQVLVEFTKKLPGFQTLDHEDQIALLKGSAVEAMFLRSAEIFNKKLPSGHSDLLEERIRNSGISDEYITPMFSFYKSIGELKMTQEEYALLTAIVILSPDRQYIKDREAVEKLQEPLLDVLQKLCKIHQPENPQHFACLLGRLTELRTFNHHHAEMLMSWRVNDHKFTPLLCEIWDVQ
T3 sequence (P19793 1-462 partner): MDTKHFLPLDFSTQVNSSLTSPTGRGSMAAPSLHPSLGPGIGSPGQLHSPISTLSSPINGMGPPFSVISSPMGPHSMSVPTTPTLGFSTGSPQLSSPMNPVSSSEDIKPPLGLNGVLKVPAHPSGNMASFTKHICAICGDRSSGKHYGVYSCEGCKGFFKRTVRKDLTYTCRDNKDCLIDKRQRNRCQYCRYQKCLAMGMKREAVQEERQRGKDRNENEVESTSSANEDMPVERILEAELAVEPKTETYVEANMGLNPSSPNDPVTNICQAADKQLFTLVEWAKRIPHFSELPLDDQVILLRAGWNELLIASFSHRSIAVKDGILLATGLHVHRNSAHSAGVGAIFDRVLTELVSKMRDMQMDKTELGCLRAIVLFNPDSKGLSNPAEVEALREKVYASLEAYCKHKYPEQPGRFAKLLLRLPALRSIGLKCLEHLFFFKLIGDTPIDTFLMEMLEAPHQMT
Procedure: Luminescence was measured with a Tecan Infinite M200 luminometer (Tecan Deutschland GmbH, Crailsheim, Germany). […] Fold activation was obtained by dividing the mean RLU of the tested compound at a respective concentration by the mean RLU of untreated control.

[3] = tested on: small hetero-dimer partner (SHP) mRNA; test: FXR target gene quantification by qRT-PCR in HepG2 cells: SHP; type: cell-based
Procedure: (§1) Quantification of the expression of FXR target genes in non-transfected cells offers the least artificial way to characterize the activity of a FXR ligand in vitro. […] As investigated genes we selected the direct FXR target genes bile salt export protein (BSEP) and small hetero-dimer partner (SHP) which allows a specific conclusion whether a FXR-dependent effect is present. […] We then quantified the mRNA of FXR target genes BSEP and SHP by qRT-PCR.
HepG2 cells were seeded in DMEM high glucose, supplemented with 10% FCS, SP (1 mM), penicillin (100 U/mL) and streptomycin (100 μg/mL) at 37 °C and 5% CO2 in 6-well plates (2 · 10^6 per well). 24 h after seeding, medium was changed to MEM, supplemented with 1% charcoal-stripped FCS, penicillin (100 U/mL), streptomycin (100 μg/mL) and L-glutamine (2 mM). After additional 24 h, medium was changed again to MEM, now additionally containing 0.1% DMSO and the respective test compounds or 0.1% DMSO alone as untreated control. Cells were incubated with the test compounds for 6 h, harvested, washed with cold phosphate buffered saline (PBS) and then directly used for RNA extraction. […]
FXR target gene expression was evaluated by quantitative PCR analysis with a StepOnePlusTM System (Life Technologies) using PowerSYBRGreen (Life Technologies; 12.5 μL per well) and the following primers[17] […] The expression was quantified by the comparative ΔΔCt method.

HEK293T cells = test: Cell proliferation assay (WST-1) in HEK293T cells; type: cell-based; settings: for anti-proliferative effect in combination with CDCA: 24 h, NSAIDs 5, 25, 50 μM combined with CDCA (50 μM); for toxicity compared with HepG2 cells: 48 h
Procedure: (§2) WST-1 assay (Roche Diagnostics International AG, Rotkreuz, Switzerland) was performed according to manufacturer’s protocol. In brief, HepG2 cells were seeded in DMEM high glucose, supplemented with sodium pyruvate (1 mM), penicillin (100 U/mL), streptomycin (100 μg/mL) and 10% FCS in 96-well plates (3 · 10^4 cells/well). HEK293T cells were seeded in DMEM high glucose, supplemented with sodium pyruvate (1 mM), penicillin (100 U/mL), streptomycin (100 μg/mL) and 10% FCS in 96-well plates (2,5 · 10^4 cells/well). After 24 h, medium was changed to DMEM high glucose, supplemented with penicillin (100 U/mL), streptomycin (100 μg/mL) and 1% charcoal stripped FCS and cells were incubated with varying concentrations of test compounds, Revlotron (100 μM) as positive control and DMEM/0,1% DMSO as negative control. […] […] After 45 min incubation, absorption (450 nm/reference: 620 nm) was determined with a Tecan Infinite M200 luminometer (Tecan Deutschland GmbH). Each experiment was repeated at least four times in triplicates.

[4] = tested on: bile salt export protein (BSEP) mRNA
Procedure: as §1
HepG2 cells were seeded in DMEM high glucose, supplemented with 10% FCS, SP (1 mM), penicillin (100 U/mL) and streptomycin (100 μg/mL) at 37 °C and 5% CO2 in 6-well plates (2 · 10^6 per well). 24 h after seeding, medium was changed to MEM, supplemented with 1% charcoal-stripped FCS, penicillin (100 U/mL), streptomycin (100 μg/mL) and L-glutamine (2 mM). After additional 24 h, medium was changed again to MEM, now additionally containing 0.1% DMSO and the respective test compounds or 0.1% DMSO alone as untreated control. Cells were incubated with the test compounds for 6 h, harvested, washed with cold phosphate buffered saline (PBS) and then directly used for RNA extraction.
Total RNA was extracted from HepG2 cells by the Total RNA Mini Kit (R6834-02, Omega Bio-Tek, Inc., Norcross, GA, USA). RNA was reverse-transcribed into cDNA using the High-Capacity cDNA Reverse Transcription Kit (4368814, Thermo Fischer Scientific, Inc., Waltham, MA, USA) with 2 μg RNA according to the manufacturer’s protocol.
FXR target gene expression was evaluated by quantitative PCR analysis with a StepOnePlusTM System (Life Technologies) using PowerSYBRGreen (Life Technologies; 12.5 μL per well) and the following primers[17] (300 nM each): SHP: 5′-[…] (forward) and 5′-[…] (reverse); BSEP: 5′-[…] (forward) and 5′-[…] (reverse). Results were normalized to GAPDH Ct values. Sequences of the GAPDH primers were as follows: 5′-[…] (forward) and 5′- […] (reverse). Each sample was set up in duplicates and repeated in at least four independent experiments. The expression was quantified by the comparative ΔΔCt method.

[5] = Cell proliferation assay (WST-1) in HepG2 cells; settings: human, HepG2 cells
Procedure: as §2

HepG2 cells = test: Cell proliferation assay (WST-1) in HepG2 cells; settings: for effect on cell viability: 6 hours, 25 μM NSAID and CDCA (50 μM); for concentrations that are considerably toxic: summing up of the WST-1 toxicity data (HepG2 and HEK293T); for no toxic effect on cell viability up to (concentration): 6 hours incubation, alone or in combination with CDCA (50 μM)
Procedure: as §2

CYP7A1 mRNA = tested on: CYP7A1 mRNA; design: method as in PMID 25631039; settings: HepG2 cells, with 50 μM CDCA; cited from earlier work
[6] = 10 or 30 μM in competition with GW4064 (3 μM), OCA (3 μM) and CDCA (20 μM)

concentrations that robustly stabilize the FXR-LBD ([1]; 5 μM FXR-LBD, ratio to protein ≥20:1): ≥ 100 µM
SMILES: CC(C)c1onc(-c2c(Cl)cccc2Cl)c1COc1ccc(/C=C/c2cccc(C(=O)O)c2)c(Cl)c1 [GW4064]

agonistic activity ([2]; 10 or 30 μM alone): None
competitive antagonistic activity [2, 6]: None
stabilization of the FXR-LBD ([1]; 500 μM alone, ratio to protein 100:1): did not stabilize the FXR-LBD
antagonism of the stabilization of the FXR-LBD by GW4064 ([1]; 500 μM in competition with GW4064 (100 μM, ratio 20:1)): did not antagonize the stabilization
SMILES: O=C(O)Cc1ccccc1Nc1c(Cl)cccc1Cl [diclofenac, diclofenac sodium]
activity of the control gene (renilla luciferase) [2]: toxicity driven decrease
agonistic activity (FXR; 10 or 30 μM alone): None
competitive antagonistic activity (FXR; [6]): None
antagonistic effect on SHP expression ([3]; 25 μM and 50 μM in competition with CDCA (50 μM), 6 h): did not observe any antagonistic effect
effect on SHP expression ([3]; 50 μM alone, 6 h incubation): did not affect the expression
anti-proliferative effect in combination with CDCA (HEK293T cells): considerable anti-proliferative effects
toxicity compared with HepG2 cells (HEK293T cells): even higher toxicity
effect on BSEP expression [4]: did not affect the expression
viability at 6 h, 30 μM [5]: 85 ± 2%
viability at 6 h, 50 μM [5]: 75 ± 2%
effect on cell viability (HepG2 cells; HepG2 cells): did not affect cell viability
concentrations with anti-proliferative activity / slight toxicity (HepG2 cells; HepG2 cells, 48 h): ≥ 10 µM
concentrations that are considerably toxic (HepG2 cells): ≥ 30 µM

SMILES: CC(C)Cc1ccc(C(C)C(=O)O)cc1 (centres unmarked) [ibuprofen]
induction of CYP7A1 expression (increase in mRNA levels) (CYP7A1 mRNA): 1.7 fold
anti-proliferative effect in combination with CDCA (HEK293T cells): considerable anti-proliferative effects
no toxic effect on cell viability up to (concentration) (HepG2 cells; HepG2 cells): up to 100 μM
effect on cell viability (HepG2 cells; HepG2 cells): did not affect cell viability
no toxicity up to (concentration) (HepG2 cells; HepG2 cells, 48 h): up to 50 μM

SMILES: COc1ccc2c(c1)c(CC(=O)O)c(C)n2C(=O)c1ccc(Cl)cc1 [indometacin]
induction of CYP7A1 expression (increase in mRNA levels) (CYP7A1 mRNA): 9 fold
anti-proliferative effect in combination with CDCA (HEK293T cells): considerable anti-proliferative effects
toxicity compared with HepG2 cells (HEK293T cells): even higher toxicity
antagonistic effect on BSEP expression ([4]; HepG2 cells, 25 μM and 50 μM in competition with CDCA (50 μM), 6 h): did not observe any antagonistic effect
effect on BSEP expression ([4]; HepG2 cells, 50 μM alone, 6 h incubation): did not affect the expression
no toxic effect on cell viability up to (concentration) (HepG2 cells; HepG2 cells): up to 50 μM
effect on cell viability (HepG2 cells; HepG2 cells): did not affect cell viability
concentrations with anti-proliferative activity / slight toxicity (HepG2 cells; human, 48 h): ≥ 10 µM
concentrations that are considerably toxic (HepG2 cells): ≥ 30 µM

Source: article PMC4589779 (Scientific Reports, 2015)
